Results from patent US20190022189A1, “USE OF SERELAXIN TO REDUCE GDF-15” (NOVARTIS AG, priority 2014, published 2019).
Marks after values point to notes of the source that are not given here.

Columns and labels:
[1] = test system: B-type natriuretic peptide; details: patients with symptomatic heart failure (Anand et al.); cited from earlier work
GDF-15 [2] = details: patients with symptomatic heart failure (Anand et al.); cited from earlier work
GDF-15 [3] = assay: Serum GDF-15 by electrochemiluminescent immunoassay in placebo-controlled acute heart failure trial (Example 1); assay type: in vivo, human
Experimental: (§1) In an international, double-blind, placebo-controlled trial (Teerlink et al., Lancet 381:29-39 (2013)) the entire contents of which are herein incorporated by reference, patients displaying pulmonary congestion on chest radiograph and admitted to the hospital for acute heart failure were randomized to a 48 hour intravenous infusion of placebo or 30 μg/kg/d serelaxin. Time elapsed from arrival to the hospital to the intravenous administration of serelaxin was less than nine hours. […] The 48 hour infusion of serelaxin reduced cardiovascular death at 180 days ([…]). No previous intervention outcome trial in patients with acute heart failure has shown a beneficial effect on post discharge mortality.
Blood samples for biomarker analysis were collected in serum separating tubes prior to initiation of serelaxin or placebo (baseline) and at days 2, 5, 14, and 60. ‘The serum samples were centrifuged within 30 to 60 minutes of collection following visualization of a clot, frozen at −20° C. for up to four weeks, then sent on dry ice to a central laboratory for storage at −80° C. until the analysis was performed. GDF-15 was measured in the samples using a pre-commercial electrochemiluminescent immunoassay provided by Roche Diagnostics GmbH (Mannheim, Germany). All samples from the same patient were analyzed at the same time at a certified central laboratory by personnel blinded to patient treatment and study data. The reporting range for GDF-15 was 400 to 20,000 ng/L.
Multivariable linear regression models were developed for the changes in GDF-15 levels from baseline to days 2 and 14 using baseline patient clinical characteristics and routine laboratory measures; backwards elimination in the placebo, group was used, with p<0.10 as the criterion for retention in the model. Missing predictors were imputed with the treatment-group-specific median for continuous variables and mode for categorical variables. GDF-15 values were log-transformed. The linearity of associations was assessed using restricted cubic splines, and if significant non-linearity was found (at p<0.10), a dichotomized, trichotoniized, linear spline or quadratic or cubic polynomial transformation was chosen based on the univariable Akaike's Information Criterion. Adjusted R^2 values from 5-fold cross-validations are presented. The serelaxin effect on biomarker changes was then estimated in all patients with multivariable adjustment for covariates prognostic of these changes in the placebo group.

[4] = test system: patients with acute heart failure; assay: Clinical outcomes in the acute heart failure trial (dyspnea, hospital stay, cardiovascular death); assay type: in vivo, human
Experimental: as §1
Changes in patient-reported dyspnea were assessed through day 5 as the area under the change from baseline in visual analog scale score through day 5, where the worst possible score was assigned following death or worsening heart failure (dyspnea VAS AUC). Reasons for rehospitalization through day 60 and causes of deaths through day 180 were adjudicated centrally by a blinded endpoint committee.

[5] = test system: patients with acute heart failure; assay: Cox regression models of 180-day cardiovascular mortality in the acute heart failure trial; assay type: in vivo, human
Source text: Multivariable linear regression models were developed for the changes in biomarker levels from baseline to day 2 and 14 using baseline patient clinical characteristics and routine laboratory measures; backwards elimination in the placebo group was used, with p<0.10 as the criterion for retention in the model. Missing predictors were imputed with the treatment-group-specific median for continuous variables and mode for categorical variables. GDF-15 values were log-transformed. To allow consistency and comparability of models with and without biomarkers, missing follow-up biomarker levels were imputed using linear interpolation or as last observation carried forward if no following measure was available. The linearity of associations was assessed using restricted cubic splines, and if significant non-linearity was found (at p<0.10), a dichotomized, trichotomized, linear spline or quadratic or cubic polynomial transformation was chosen based on the univariable Akaike's Information Criterion. The serelaxin effect on GDF-15 changes was then estimated with multivariable adjustment for covariates prognostic of these changes in the placebo group.
Associations of baseline biomarker values and changes with clinical outcomes were estimated with linear regression for dyspnea VAS AUC, and with Cox regression models for 60-day rehospitalization for heart failure or renal failure or cardiovascular death and for 180-day cardiovascular mortality. Linearity of associations of GDF-15 values with outcomes was assessed as above. Mean changes in biomarkers over time were estimated from repeated measures analysis of variance models, with no imputation for missing values.

[6] = test system: patients hospitalized with acute heart failure; assay: Pulmonary hemodynamic effects in patients hospitalized with acute heart failure (Example 2); assay type: in vivo, human
Experimental: (§2) In a separate study, the pulmonary hemodynamic effects (e.g., the pulomonary load) of serelaxin were evaluated in patients hospitalized with acute heart failure (Ponikowski et al., Eur Heart J 35:431-441 (2014)). Patients were randomized 1:1 to serelaxin or placebo, initially stabilized, then infused with serelaxin at a dose of 30 ug/kg/d for 20 hours. Pulmonary congestion at the time of presentation was a required inclusion criterion. Time elapsed from hospital admission to the beginning of intravenous infusion of serelaxin was less than 29 hours. Serelaxin exerted rapid hemodynamic effects; changes were detected within the first 30 minutes of infusion and were sustained throughout the treatment period. Serelaxin reduced the time weighted average pulmonary capillary wedge pressure from baseline in the first eight hours of treatment (p=0.0001) as well as during hours 8-20 (p=0.03).
(§3) Pulmonary capillary wedge pressure (PCWP), mean pulmonary artery pressure (PAP), and pulmonary vascular resistance (PVR) were measured as well as NTproBNP and GDF-15 An analysis was performed of the association of GDF-15 and NTproBNP with these hemodynamic indices.

NTproBNP = NTproBNP in the pulmonary hemodynamic study (Example 2); assay type: in vivo, human; details: 20 hour infusion; p=0.037
Experimental: as §2, §3

GDF-15 [7] = assay: GDF-15 in the pulmonary hemodynamic study, 20 hour infusion (Example 2); assay type: in vivo, human
Experimental: as §2
GDF-15 was measured in blood samples collected in serum separating tubes. The serum samples were centrifuged within two hours and plasma was stored at −20° C. or lower, followed by storage at −80° C. until the analysis was performed. GDF-15 was measured using a pre-commercial electrochemiluminescent immunoassay provided by Roche Diagnostics GmbH (Mannheim, Germany). All samples from the same patient were analyzed at the same time at a certified central laboratory by personnel blinded to patient treatment and study data.

[8] = test system: patients with acute heart failure; details: Phase 3 trial in acute heart failure (Teerlink et al.); cited from earlier work
[9] = 30 ug/kg/d infusion for 20 hours

CCCCC(=O)N(Cc1ccc(-c2ccccc2-c2nnn[nH]2)cc1)[C@H](C(=O)O)C(C)C [Valsartan]
heart failure biomarker B-type natriuretic peptide [1]: lower | effect on GDF-15 (GDF-15 [2]): no effect

Serelaxin
GeoMean GDF-15 (GDF-15 [3]; Baseline (before start of infusion)): 4380.3 ng/L | Median GDF-15 (GDF-15 [3]; Baseline (before start of infusion), serelaxin group n = 530): 4115.5 ng/L | GDF-15 GeoMean Change vs Baseline (GDF-15 [3]; Day 2): −21.6%* | GeoMean GDF-15 (GDF-15 [3]; Day 2, 48 hour iv infusion 30 μg/kg/d): 3395.6 ng/L | Median GDF-15 (GDF-15 [3]; Day 2, 48 hour iv infusion 30 μg/kg/d, n = 530): 3341.0 ng/L | GDF-15 GeoMean Change vs Baseline (GDF-15 [3]; Day 5): −14.95* % | GeoMean GDF-15 (GDF-15 [3]; Day 5, 48 hour iv infusion 30 μg/kg/d): 3690.3 ng/L | Median GDF-15 (GDF-15 [3]; Day 5, 48 hour iv infusion 30 μg/kg/d, n = 530): 3584.5 ng/L | GDF-15 GeoMean Change vs Baseline (GDF-15 [3]; Day 14): −20.2%* | GeoMean GDF-15 (GDF-15 [3]; Day 14, 48 hour iv infusion 30 μg/kg/d): 3397.0 ng/L | Median GDF-15 (GDF-15 [3]; Day 14, 48 hour iv infusion 30 μg/kg/d, n = 530): 3296.0 ng/L | GDF-15 GeoMean Change vs Baseline (GDF-15 [3]; Day 60): −26.4%* | GeoMean GDF-15 (GDF-15 [3]; Day 60, 48 hour iv infusion 30 μg/kg/d): 3114.0 ng/L | Median GDF-15 (GDF-15 [3]; Day 60, 48 hour iv infusion 30 μg/kg/d, n = 530): 2981.5 ng/L | GDF-15 levels versus placebo, both in addition to standard of care (GDF-15 [3]; day 14): approached statistical significance | GDF-15 level (GDF-15 [3]; day 60): trend towards lower | GDF-15 levels versus placebo, both in addition to standard of care (GDF-15 [3]; days 2 and 5): significantly lower | decrease in GDF-15 (GDF-15 [3]; to day 14): faster decrease | cardiovascular death at 180 days ([4]; 48 hour infusion, p=0.28): reduced | patient-reported general well-being ([4]; 48 hour iv infusion 30 μg/kg/d): improvements | primary dyspnea efficacy endpoint, Visual Acuity Scale area under the curve ([4]; 48 hour iv infusion 30 μg/kg/d vs placebo, p=0.007): significantly improved | reduction of time in the intensive care or coronary care unit ([4]; vs placebo, p=0.03): 0.4 days | reduction of average length of hospital stay ([4]; vs placebo, p=0.04): 0.9 days | HR, CV death through Day 180 ([5]; adjusted for baseline GDF-15 and change in GDF-15 from baseline to Day 2): 0.832 | HR, CV death through Day 180 ([5]; adjusted for baseline GDF-15 and change in GDF-15 from baseline to Day 14, N = 1037): 0.847 | HR, CV death through Day 180 ([5]; adjusted for change in GDF-15 from baseline to Day 2 and multivariable predictors of outcome): 0.763 | HR, CV death through Day 180 ([5]; adjusted for change in GDF-15 from baseline to Day 14 and multivariable predictors of outcome, N = 1037): 0.753 | hazard ratio for 180-day CV mortality ([5]; multivariable adjustment for baseline covariates, without GDF-15 change, 95% CI 0.430-1.028): 0.665 | hazard ratio for 180-day CV mortality ([5]; unadjusted for other baseline covariates, 95% CI 0.403-0.950): 0.619 | pulmonary vascular resistance ([6]; 30 ug/kg/d infusion): concomitant decrease | systemic vascular resistance ([6]; 30 ug/kg/d infusion): concomitant decrease | time weighted average pulmonary capillary wedge pressure from baseline ([6]; first eight hours of treatment, p=0.0001): reduced | time until hemodynamic changes were detected ([6]; from start of infusion, sustained throughout the treatment period): ≤ 30 min | time weighted average pulmonary capillary wedge pressure from baseline ([6]; hours 8-20, p=0.03): reduced | improvements in PCWP, PAP and PVR compared to placebo ([6]; over the 20 hour infusion period, all p values <0.005): favored serelaxin | systolic and diastolic pulmonary arterial pressure ([6]; p=0001 at four hours): significantly lowered | NTproBNP (NTproBNP): significantly reduced | GDF-15 levels versus placebo (GDF-15 [7]; [9]): significantly decreased | reduction of GDF-15 geo-mean from baseline (GDF-15 [7]; [9]): 16% | GDF-15 treatment difference in favor of serelaxin versus placebo (GDF-15 [7]; 30 ug/kg/d infusion for 20 hours, p=0.0204): 18% | baseline median GDF-15 (GDF-15 [7]; baseline, serelaxin group): 3260 ng/L | dyspnea [8]: rapid relief | mortality at six months [8]: reduced
